According to US11471502B2, “Neuroprotective peptide” (UNIVERSITY COLLEGE CARDIFF C[…], priority 2017, dated 2022):

Key:
Tg2576 mice = assay: Contextual Fear Conditioning in Tg2576 mice; format: in vivo, mouse; conditions: 20 mg/kg i.p. before CFC training, retention 24 h later
Method: 7 months old Tg2576 mice and WT mice were treated with either CPP-SCR or CPP-RB5 (20 mg/kg, i.p.) before Contextual Fear Conditioning (CFC) training and tested for memory retention 24 h later. Contextual Fear (CF) memory impairment in Tg2576 mice is fully rescued by RB5 treatment. Values are reported as % of time spent freezing. Data are expressed as Mean±SEM. *p<0.05**p<0.01.
Mice protocol: after 120 sec of exploration, mice received 5 foot shocks (0.7 mA, 2-s duration, separated by 60-s intervals) delivered through the grid floor. Context Fear Memory was assessed 24 h later by returning mice for 5 min to the conditioning chamber and not delivering a foot shock.
(§1) For all protocols, freezing behavior served as a measure of conditioned fear to the context during the conditioning and retrieval tests of the behavioural procedures. This was video-recorded and quantified by an observer blind to the experimental group. One unit of freezing was defined as a continuous absence of movement other than that required for respiration in 1 s sampled every 10 s.

Lister Hooded rats = assay: Contextual Fear Conditioning after infusion into dorsal hippocampus; format: in vivo, rat
Method: (*p<0.05, **p<0.01, FLSD test).
The subjects were adult male Lister hooded rats weighing 280-350 g. They were housed in pairs, in holding rooms maintained at 21° C. on a reversed-light cycle (12 h light/dark; lights on at 10:00 P.M.). All experiments were conducted in the dark period of the rats. Food and water were freely available throughout the experiment. Steel double guide cannulae aimed at the dorsal hippocampus (AP−3.50, relative to bregma) were surgical implanted under anaesthesia at least one week prior to behavioural training and microinfusions. Bilateral infusions with either 2 mg/ml CPP-SCR or CPP-RB5, 20 min prior to conditioning (pH 7.0, […]) via the chronically indwelling cannula were carried out in awake rats using a syringe pump, connected to injectors (28 gauge, projecting 1 mm beyond the guide cannulae) by polyethylene tubing.
Conditioning was performed in one of two distinct contexts. These contexts were designed to differ in a number of distinctive characteristics including size, spatial location, odour and lighting.
Rat protocol: during the 3 min conditioning training trial, rats received a single scrambled footshock (0.5 mA for 2 s) 2 min after being placed into one of the conditioning contexts (CtxA). All rats were returned to the home cages after conditioning. Retrieval tests 3 hr (post-retrieval short-term memory, STM), or 2 days (long-term memory, LTM) after recall again consisted of exposing the rat to the conditioning context for 2 min.
as §1

[1] = tested on: embryonic striatal cultures; assay: TUNEL apoptosis in neuronal embryonic striatal cultures; format: cell-based, mouse
Method: Data are expressed as Mean±SEM, n=5. Two-way ANOVA Bonferroni post-hoc comparison **p<0.01.
Embryonic cultures (E16) were prepared from striata of WT mice, plated onto poly-L-lysine coated glass and kept for 10 days in culture medium as previously described (Fasano et al, Biol Psy 2009). Two different concentrations (20 μM and 50 μM) of CPP-RB5 and CPP-SCR peptides were added to the culture medium by the third day and replaced every day. On day 11, cells were fixed with 4% PFA pH 7.4 in PBS for 10 min.
The DeadEnd Colorimetric TUNEL System (Promega) was used to detect apoptotic cells in cultured cells labelling the fragmented DNA of apoptotic cells using a modified TUNEL assay. TUNEL staining was realized with diaminobenzide (DAB) following the manufacture's protocol. Sample areas were digitized through a video camera (Nicon) connected to a Zeiss microscope using a 20× objective. 4 areas were counted and averaged for each plate.

[2] = 2 mg/ml infusion into dorsal hippocampus prior to CFC
[3] = 2 mg/ml bilateral dorsal CA1 infusion 20 min prior to conditioning

Row | Compound | Contextual Fear (CF) memory impairment (% of time spent freezing) (Tg2576 mice) | acquisition of contextual fear memory (Lister Hooded rats; [2]) | long-term fear memory (Lister Hooded rats; [2]) | reduction of apoptosis compared to CPP-SCR values ([1]; 50 μM, 7 consecutive days, TUNEL) | STM and LTM (freezing at 3 hr and 2 days after training) (Lister Hooded rats; [3]) | post footshock (postUS) freezing behaviour during fear conditioning (Lister Hooded rats; [3]) | apoptotic levels (TUNEL apoptotic nuclei) ([1]; higher dose (50 μM), 7 days, vs Scramble)
1 | GRKKRRQRRRPPQGGGGGEPRRTEGVGPGVPGEVEMVKGQPFDV (listed as Homo sapiens) [CPP-RB5] | rescued already present memory impairments in aged Tg2576 mice back to WT levels | enhanced | stronger long-term fear memory | 32% | – | – | –
2 | CSCC[C@H](NC(=O)[C@H](CCC(=O)O)NC(=O)[C@@H](NC(=O)[C@H](CCC(=O)O)NC(=O)CNC(=O)[C@@H]1CCCN1C(=O)[C@@H](NC(=O)CNC(=O)[C@@H]1CCCN1C(=O)CNC(=O)[C@@H](NC(=O)CNC(=O)[C@H](CCC(=O)O)NC(=O)[C@@H](NC(=O)[C@H](CCCNC(=N)N)NC(=O)[C@H](CCCNC(=N)N)NC(=O)[C@@H]1CCCN1C(=O)[C@H](CCC(=O)O)NC(=O)CNC(=O)CNC(=O)CNC(=O)CNC(=O)CNC(=O)[C@H](CCC(N)=O)NC(=O)[C@@H]1CCCN1C(=O)[C@@H]1CCCN1C(=O)[C@H](CCCNC(=N)N)NC(=O)[C@H](CCCNC(=N)N)NC(=O)[C@H](CCCNC(=N)N)NC(=O)[C@H](CCC(N)=O)NC(=O)[C@H](CCCNC(=N)N)NC(=O)[C@H](CCCNC(=N)N)NC(=O)[C@H](CCCCN)NC(=O)[C@H](CCCCN)NC(=O)[C@H](CCCNC(=N)N)NC(=O)CNC(C)=O)[C@@H](C)O)C(C)C)C(C)C)C(C)C)C(=O)N[C@H](C(=O)N[C@@H](CCCCN)C(=O)NCC(=O)N[C@@H](CCC(N)=O)C(=O)N1CCC[C@H]1C(=O)N[C@@H](Cc1ccccc1)C(=O)N[C@@H](CC(=O)O)C(=O)N[C@@H](C(=O)O)C(C)C)C(C)C [RB5] | fully rescued | – | – | – | increase in both STM and LTM | increase | significant reduction of apoptotic levels
